Data published in patent US10111907B2, “Methods of treating ischemia” (FATE THERAPEUTICS, INC., priority 2011, dated 2018).

Tested on: CD34+ cells
Test: SDF-1 transwell migration assay
Format: cell-based
Conditions: CD34+ cells treated 4 hours at 37° C. at 10 μM, washed; 50 ng/mL SDF1 in lower chamber, 2.5 hours; compared to DMSO control
Method: Transwell migration assays were performed using 96-well chemotaxis chambers, […] pore size polycarbonate membrane (Corning Inc., Corning, N.Y.) in accordance with manufacturer's instructions. Briefly, CD34^+ cells were then treated for 4 hours at 37° C. with 16,16-dimethyl PGE2 (dmPGE2), dmPGE2 and glucocorticoid, or DMSO control at a concentration of 10 μM in StemSpan® media (StemCell Technology, Vancouver, Canada). The cells were then washed by centrifugation (300 g for 10 minutes) and resuspended in transwell assay buffer (Phenol Red Free RPMI media (Mediatech), 0.5% lipid free BSA (Sigma-Aldrich) at a concentration of 40,000-60,000 cells/75 μl.
To test the duration of the treatment effects, one portion of treated cells was washed by centrifugation (300 g for 10 minutes) and resuspended in StemSpan® media for 4 hours at 37° C. without dmPGE2, glucocorticoids, or DMSO and then washed again by centrifugation (300 g for 10 minutes) and resuspended in transwell assay buffer (Phenol Red Free RPMI media (Mediatech), 0.5% lipid free BSA (Sigma-Aldrich) at a concentration of 40,000-60,000 cells/75 μl.
Seventy-five μl of cell suspension was added to the upper chamber of the plate, while 235 μl of transwell assay media containing 0 or 50 ng/ml SDF 1α (R&D system, Minneapolis, Minn.) was added to the bottom well. […]

CCCCC(C)(C)[C@H](O)/C=C/[C@H]1[C@H](O)CC(=O)[C@@H]1C/C=C\CCCC(=O)O [dmPGE2, 16,16-dimethyl PGE2]
SDF1-driven cell migration (% of cells added): increased SDF1-driven cell migration compared to the DMSO control
